Assay: xn = mol fraction of the nth substance listed
Details: 100 kPa

CCOC(C)=O + CCCC[n+]1ccn(C)c1.F[P-](F)(F)(F)(F)F
x2 = 0
Details | speed of sound [m/s]
303.15 K | 1120.8
308.15 K | 1098.7
313.15 K | 1076.4
318.15 K | 1054.1
323.15 K | 1032

CCCC[n+]1ccn(C)c1.F[P-](F)(F)(F)(F)F + CCOC(C)=O
speed of sound [m/s]
Details | x1 = 0.1012 | x1 = 0.1992 | x1 = 0.312 | x1 = 0.3985 | x1 = 0.5056 | x1 = 0.5996 | x1 = 0.7054 | x1 = 0.7963 | x1 = 0.9185 | x1 = 1
298.15 K | 1182.1 | 1223.3 | 1269.2 | 1302 | 1337.9 | – | 1391.7 | 1410.1 | 1430.5 | 1443.8
303.15 K | 1161.8 | 1205 | 1252.8 | – | – | – | 1378.8 | 1397.4 | – | 1431.7
308.15 K | 1141.8 | 1186.7 | – | – | – | 1339.5 | 1366 | – | 1405.6 | 1419.8
313.15 K | 1121.4 | – | 1220.1 | 1256 | 1297.5 | 1325.9 | 1353.2 | 1371.9 | – | –
318.15 K | 1101.1 | – | 1203.7 | 1240.6 | – | 1312.6 | 1340.4 | – | – | –
323.15 K | 1081 | 1132.1 | 1187.3 | 1225.2 | – | 1299.1 | 1327.5 | 1346.6 | 1368.4 | 1385.6
